Data taken from patent publication US20070117842A1, “Polymorph of 4-[3-chloro-4-(cyclopropylaminocarbonyl)aminophenoxy]-7-methoxy-6- quinolinecarboxamide and a process for the preparation of the same” (priority 2003, published 2007).
Values after ≈ are worked out from the molar mass of the structure shown.

What was measured:
[1] = Hygroscopicity test by microbalance method; assay type: physicochemical; settings: 25° C.
Method: (Hygroscopicity Test by Microbalance Method)
The higroscopicities of the crystals obtained in Examples 1d and 2d were evaluated by microbalance method. An apparatus and conditions employed were as follows.
Apparatus: Integrated microbalance system MB 300W (VTI Co.)
Relative humidity step: 5 to 95 by 5
Equilibrium Criteria: 0.0050 wt % (5 minutes)
Maximum equilibrium time: 120 minutes
The results of measuring the higroscopicities of the crystals obtained in Examples 1d and 2d by microbalance method are shown in FIGS. 13 and 14, respectively. As is seen from the results shown in these figures, within the range of 5-95% of relative humidity, the polymorph (A) gave a weight change of 1% and the polymorph (B) gave that of 1.5%.

[2] = Crystal transition between polymorphs in heated suspension; assay type: physicochemical; settings: 60° C., 3 hours, listed as polymorph (B)
Method: These suspensions were filtered to collect 4-(3-chloro-4-(cyclopropylaminocarbonyl)aminophenoxy)-7-methoxy-6-quinolinecarboxamide (184 to 266 mg).
These suspensions were filtered to collect 4-(3-chloro-4-(cyclopropylaminocarbonyl)aminophenoxy)-7-methoxy-6-quinolinecarboxamide (141 to 256 mg).

[3] = Solubility test (pH 3, Britton Robinson buffer); assay type: physicochemical; settings: for solubility (concentration in filtrate): pH 3 Britton Robinson buffer, 25-26° C.; for pH of the filtrate: solubility test
Method: (Solubility Test) The solubilities (pH 3) of the crystals obtained in Examples 1d and 2d were evaluated by the following method. About 3 mg of the crystals obtained in Examples 1d and 2d were weighed and each of them was put in a 10 mL screw-capped transparent test tube. 5 mL of a buffer solution (Britton Robinson buffer, pH 3.091, ionic strength I=0.3) was added to each of the test tubes to prepare the test solutions. The test tubes were wrapped with aluminum foil to shield from light, and shaken by a shaker (MS-1 Iuchi Seieido) in the following conditions. Temperature: 25-26° C. (a temperature in a laboratory) Shaking frequency: 150 times/minute Shaking time: 3 hours and 5 hours Respective sample solutions after shaking were filtered ([…], Sample LCR13-LG, Millipore Co.), and each 1 mL of the initial filtrate was discarded. Each of accurately pipetted 1 mL of the filtrates was put in a 10 mL test tube, to which accurately pipetted 1 mL of a mixed solution of water/acetonitrile (1:1 (v/v)) was added to prepare a solution for the HPLC analysis. The HPLC conditions were as follows. A standard solution for the HPLC analysis were prepared as follows. About 10 mg of the crystals obtained in Example 2d was accurately weighed, to which a mixed solution of water/acetonitrile/ammonium acetate (100:100:0.1, v/v/w) was added to give accurate 100 mL to prepare a stock standard solution. Accurately pipetted 5 mL of the stock control solution was added with a mixed solution of water/acetonitrile/ammonium acetate (100:100:0.1, v/v/w) to give accurate 25 mL to prepare the standard solution for the HPLC analysis. Regarding a blank solution, a mixed solution of water/acetonitrile/ammonium acetate (100:100:0.1, v/v/w) was used. The standard solution and respective filtrates were analyzed by HPLC to measure concentrations (mg/mL) of 4-(3-chloro-4-(cyclopropylaminocarbonyl)aminophenoxy)-7-methoxy-6-quinolinecarboxamide in respective filtrates according to the following equation. Concentration (mg/mL)=(Concentration in the standard solution, mg/mL)×[(Peak area in each filtrate)×2/(Peak area in the standard solution)] As is evident from the results, there was no significant difference in the solubility at pH 3 between the polymorphs (A) and (B).

[4] = Hygroscopicity test by a desiccator method; assay type: physicochemical; settings: for water content: Karl Fischer method
Method: (Hygroscopicity Test by a Desiccator Method) The hygroscopicities of the crystals obtained in Examples 1d and 2d were evaluated by a desiccator method. […] Weighing bottles (in opened caps) were used for containers, and MIR-552 (Sanyo) was used for a storage apparatus. [table] The powder X-ray diffraction analysis was carried out under the following conditions. The water content was measured (by the Karl Fischer method) by using the following apparatus and reagents.

[5] = Solid stability test (1 month storage; appearance, water content, HPLC purity and residual ratio, powder X-ray diffraction); assay type: physicochemical; settings: for impurity / remaining percent: HPLC; for water content: Karl Fischer method
Method: (Solid Stability Test) The solid stabilities of the crystal obtained in Examples 1d and 2d were evaluated. […] The water content measurement and the powder X-ray diffraction measurement were carried out by the same method as described in the hygroscopicity test by the dessiccator method. Further, the purity test and the residual ratio (percent) measurement by HPLC were carried out by the same method as described above, except for the condition that the column temperature was 35° C. In this connection, the residual ratio (percent) (measurement by HPLC) was defined as stated bellow by using the crystal stored under the condition C as the standard and its solution as the standard solution. Remaining percent (%)=[(Peak area of the sample solution)×(Weighed amount of the standard: in terms of a dehydrate (mg))]×100/[(Peak area of the standard solution)×(Weighed amount of the sample: in terms of a dehydrate (mg))] [table]

[6] = system: small cell lung cancer cell line H-526 expressing c-Kit kinase; experiment: Effect on cell proliferation stimulated by SCF; assay type: cell-based; settings: Homo sapiens, NCI-H526; H-526 cells, SCF stimulation, 7th day, Cell Counting Kit-8; read-out: IC50 (concentration required for 50% inhibition of the cell proliferation)
Method: After culturing, H-526 cells were washed with PBS three times and were suspended in an RPMI1640 medium containing 0.1% BSA (Sigma Corporation) (hereinafter abbreviated as “BSA-RPMI1640”) at 1.0×10^5 cells/ml. […] After color development, the absorbance of each well was determined using a MTP-32 plate reader (Colona Electric Co., Ltd.) at a measuring wavelength of 450 nm and at a reference wavelength of 660 nm. The absorbance of each well was subtracted by the absorbance of the well without addition of SCF, and then the ratio of the absorbance of the well with addition of the test substance to the ratio of the absorbance of the well without addition of the test substance was determined. This ratio was used to calculate the concentration of the test substance required for 50% inhibition of the cell proliferation (IC50).

[7] = condition A: 25° C., 75% relative humidity, stored 1 week
[8] = condition B: 25° C., 93% relative humidity, stored 1 week
[9] = desiccator method, 25° C., 75% or 93% relative humidity, 1 week
[10] = condition C: −20° C., brown screw vial, closed, 1 month
[11] = condition D: 25° C., 1000lx, shading with aluminum foil, quartz tube, closed, 1 month
[12] = condition E: 25° C., 1000lx, quartz tube, closed, 1 month
[13] = condition F: 40° C., 75% RH, brown screw vial, open, 1 month
[14] = condition G: 60° C., brown screw vial, closed, 1 month

## COc1cc2nccc(Oc3ccc(NC(=O)NC4CC4)c(Cl)c3)c2cc1C(N)=O [Example 2d, 4-(3-chloro-4-(cyclopropylaminocarbonyl)aminophenoxy)-7-methoxy-6-quinolinecarboxamide]
[1]; microbalance method, 5-95% relative humidity
  hygroscopicity: no perceivable hygroscopisity
[1]; within the range of 5-95% of relative humidity, listed as polymorph (B)
  weight change: 1.5%
[2]; 300 mg in DMSO (1.7 mL) and 33% (v/v) acetone-water (0.17, 0.34, 0.51 or 0.85 mL)
  crystal form after suspension: all of them remained the polymorph (B)
[2]; 300 mg in DMSO (1.7 mL), without 33% acetone-water
  dissolution in DMSO: most of the polymorph (B) dissolved
[3]; shaking time 3 hours
  solubility (concentration in filtrate): 62 µg/mL (≈ 145 µM)
  pH of the filtrate: 3.109
[3]; shaking time 5 hours
  solubility (concentration in filtrate): 54 µg/mL (≈ 127 µM)
  pH of the filtrate: 3.106
[4]; [7]
  appearance: pale brownish
  water content: 0.5 wt %
[4]; [8]
  appearance: pale brownish
  water content: 0.5 wt %
[4]; [9]
  crystal transition: no perceivable crystal transition
  hygroscopicity: no perceivable hygroscopicitiy
[4]; prior to storage
  appearance: pale brownish
  water content: 0.5 wt %
[5]; [10]
  appearance: pale brownish
  impurity: 1.55%
  water content: 0.4 wt %
[5]; condition C: −20° C., brown screw vial, closed, 1 month, condition C is the standard
  remaining percent: (100) %
[5]; [11]
  appearance: pale brownish
  impurity: 1.54%
  water content: 0.3 wt %
[5]; condition D: 25° C., 1000lx, shading with aluminum foil, quartz tube, closed, 1 month, vs condition C standard
  remaining percent: 101.8%
[5]; [12]
  appearance: pale brownish
  impurity: 1.55%
  water content: 0.3 wt %
[5]; condition E: 25° C., 1000lx, quartz tube, closed, 1 month, vs condition C standard
  remaining percent: 100.5%
[5]; [13]
  appearance: pale brownish
  impurity: 1.54%
  water content: 0.4 wt %
[5]; condition F: 40° C., 75% RH, brown screw vial, open, 1 month, vs condition C standard
  remaining percent: 100.4%
[5]; [14]
  appearance: pale brownish
  impurity: 1.53%
  water content: 0.5 wt %
[5]; condition G: 60° C., brown screw vial, closed, 1 month, vs condition C standard
  remaining percent: 101.3%
[5]; prior to storage
  appearance: pale brownish
  impurity: 1.53%
  water content: 0.5 wt %
[5]; stored for 1 month, any storage conditions
  change on storage (solid stability): no change was observed

## CCCNC(=O)Nc1ccc(Oc2ncnc3cc(OC)c(OC)cc23)cc1Cl [KRN633, reference compound]
[6]
  IC50: 301 nM
